# Test results from patent publication US8946240B2, “4-amino-3-(imidazolyl)-pyrazolo[3,4-D]pyrimidines” (ChemoCentryx, Inc., priority 2008, dated 2015).
# Molecular target: T1, CCR1 (Homo sapiens, UniProt P32246)
# T1 construct: host or cells: THP-1 cells or freshly isolated monocytes
# T1 sequence (P32246 1-355): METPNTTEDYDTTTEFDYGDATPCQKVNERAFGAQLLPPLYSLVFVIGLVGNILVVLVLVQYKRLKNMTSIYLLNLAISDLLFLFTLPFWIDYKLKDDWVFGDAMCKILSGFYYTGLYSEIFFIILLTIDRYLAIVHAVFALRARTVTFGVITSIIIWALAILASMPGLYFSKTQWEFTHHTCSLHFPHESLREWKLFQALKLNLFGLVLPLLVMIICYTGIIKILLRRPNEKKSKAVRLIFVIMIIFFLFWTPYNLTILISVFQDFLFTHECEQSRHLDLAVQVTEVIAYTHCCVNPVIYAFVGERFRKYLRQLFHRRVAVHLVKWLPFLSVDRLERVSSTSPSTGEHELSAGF
# Test: chemotaxis assay (THP-1 cells or monocytes migrating to CCR1 chemokine ligands)
# Assay type: cell-based
# Settings: chemotaxis assay; compared with drawing 40
# Experimental: THP-1 cells were obtained from ATCC (TIB-202) and cultured as a suspension in RPMI-1640 medium supplemented with 2 mM L-glutamine, 1.5 g/L sodium bicarbonate, 4.5 g/L glucose, 10 mM HEPES, 1 mM sodium pyruvate, 0.05% 2-mercaptoethanol and 10% FBS. Cells were grown under 5% CO2/95% air, 100% humidity at 37° C. and subcultured twice weekly at 1:5 (cells were cultured at a density range of 2×10^5 to 2×10^6 cells/mL) and harvested at 1×10^6 cells/mL. THP-1 cells express CCR1 and can be used in CCR1 binding and functional assays.
# One of the primary functions of chemokines is their ability to mediate the migration of chemokine receptor-expressing cells, such as white blood cells. To confirm that a compound of interest inhibited not only CCR1 specific binding and signaling (at least as determined by calcium mobilization assays), but also CCR1 mediated migration, a chemotaxis assay was employed. THP-1 myelomonocytic leukemia cells, which resemble monocytes, as wells as freshly isolated monocytes, were used as targets for chemoattraction by CCR1 chemokine ligands (i.e., MIP-1α, CCL15/leukotactin). Cells were place in the top compartment of a microwell migration chamber, 5 μm pore polycarbonate, polyvinylpyrrolidone-coated filters in 96-well chemotaxis chambers (Neuroprobe; Gaithersburg, Md.) using chemotaxis buffer (Hank's balanced salt solution (HBSS) and 1% FBS. CCR1 chemokine ligands (i.e., MIP-1α, CCL15/Leukotactin; R&D Systems; Minneapolis, Minn.) are used to evaluate compound mediated inhibition of CCR1 mediated migration. Other chemokines (i.e., SDF-1α; R&D Systems; Minneapolis, Minn.) are used as specificity controls. The lower chamber was loaded with 29 μl of chemokine (i.e., 0.1 nM CCL15/Leukotactin) and varying amounts of compound; the top chamber contained 100,000 THP-1 or monocyte cells in 20 μl. […] To ascertain a compound of interest's affinity for CCR1 as well as to confirm its ability to inhibit CCR1 mediated cell migration, inhibitory activity was titered over a 1×10^−10 to 1×10^−4 M range of compound concentrations in this chemotaxis assay. In this assay, the amount of compound was varied; while cell number and chemokine agonist concentrations were held constant. After the chemotaxis chambers were incubated 1-2 hours at 37° C., the responding cells in the lower chamber were quantified by labeling with the CyQuant assay (Molecular Probes), a fluorescent dye method that measures nucleic acid content, and by measuring with a Spectrafluor Plus (Tecan). The computer program Prism from GraphPad, Inc. (San Diego, Calif.) was used to calculate IC50 values. IC50 values are those compound concentrations required to inhibit the number of cells responding to a CCR1 agonist by 50%.
row,Structure (SMILES),IC50 relative to comparator compound
1,COc1cc(N2CCN(C(=O)Cn3nc(-c4ncc[nH]4)c4c(N)ncnc43)[C@@H](C)C2)c(F)cc1Cl [drawing 39],an order of magnitude lower

# Same assay, conditions: versus imidazole-substituted pyrido[4,3-b]pyrazoles of related U.S. application Ser. No. 12/124,894
row,Structure (SMILES),activity in direct comparisons relative to the related compounds tested
1,C[C@H]1CN(c2ccc(Cl)cc2F)CCN1C(=O)Cn1nc(-c2ncc[nH]2)c2c(N)ncnc21 [Compound 1.003],at least an order of magnitude better
2,CCOc1cc(N2CCN(C(=O)Cn3nc(-c4ncc[nH]4)c4c(N)ncnc43)[C@@H](C)C2)ccc1Cl [Compound 1.011],at least an order of magnitude better
3,COc1cc(N2CCN(C(=O)Cn3nc(-c4ncc[nH]4)c4c(N)ncnc43)[C@@H](C)C2)ccc1Cl [Compound 1.004],at least an order of magnitude better
4,CCOc1cc(N2CCN(C(=O)Cn3nc(-c4ncc[nH]4)c4c(N)ncnc43)CC2)ccc1Cl [Compound 1.007],at least an order of magnitude better
5,Nc1ncnc2c1c(-c1ncc[nH]1)nn2CC(=O)N1CCN(c2ccc(Cl)c(OC(F)(F)F)c2)CC1 [Compound 1.010],at least an order of magnitude better
6,COc1cc(N2CCN(C(=O)Cn3nc(-c4ncc[nH]4)c4c(N)ncnc43)CC2)ccc1Cl [Compound 1.001],at least an order of magnitude better
7,COc1cc(N2CCN(C(=O)Cn3nc(-c4ncc[nH]4)c4c(N)ncnc43)[C@@H](C)C2)c(F)cc1Cl [Compound 1.006],at least an order of magnitude better
